Test results taken from patent US8110545B2, “Non-proteolysable oligopeptides that inhibit glycoprotein GP41 of the aids virus” (priority 2005, dated 2012).

Target: T1, gp41 of HIV-1 (Human immunodeficiency virus type 1 group M subtype B, UniProt P03375)
T1 construct: cell-cell fusion induced by gp41 of HIV-1 expressed in CHO cells; expressed in transfected cells; host or cells: CHO cells (effector), co-cultured with CD4-expressing HeLa cells (target)
Assay type: cell-based, HIV-1 (BH10 isolate)
Details: 20 nM T-20, positive inhibition control, 37° C., 16 hours
Method: The effect has been measured as the inhibition of cell-cell fusion induced by gp41 of HIV-1 expressed in CHO cells, which takes place when they are mixed with CD4 receptor-expressing HeLa cells (BH10 isolate: Gene Bank access number M15654). The oligopeptide concentration was 5 μM and the temperature was 37° C. Incubation in the cell culture medium (GMEM-S supplemented with 1 mM sodium pyruvate and 0.4 mM methionine sulfoximine) was performed for 16 hours. The bars correspond to the number of nuclei in syncytial plates (fused cells with more than 4 nuclei) per field after this time. The means of 4 individual measurements plus the standard deviations are shown.
As a positive inhibition control, cells treated with 20 nM of T-20 (enfuvirtide) are shown. The sample, in the sole presence of gqidev, was processed following the protocol described in the preceding figure.
The lines represent adjustments to hyperbolic-type functions. The assay, in the presence of increasing quantities of oligopeptides, was performed and quantified in accordance with the description of FIG. 3. […]
It was added, at a concentration of 5 μM (micromolar), to the cell culture medium (GMEM-S supplemented with 1 mM sodium pyruvate and 0.4 mM methionine sulfoximine). […] The activity of gp41 is detected by the formation of multi-nucleated cells (CTL panel) produced by the fusion of the plasma membranes.

T1 sequence (P03375 512-856): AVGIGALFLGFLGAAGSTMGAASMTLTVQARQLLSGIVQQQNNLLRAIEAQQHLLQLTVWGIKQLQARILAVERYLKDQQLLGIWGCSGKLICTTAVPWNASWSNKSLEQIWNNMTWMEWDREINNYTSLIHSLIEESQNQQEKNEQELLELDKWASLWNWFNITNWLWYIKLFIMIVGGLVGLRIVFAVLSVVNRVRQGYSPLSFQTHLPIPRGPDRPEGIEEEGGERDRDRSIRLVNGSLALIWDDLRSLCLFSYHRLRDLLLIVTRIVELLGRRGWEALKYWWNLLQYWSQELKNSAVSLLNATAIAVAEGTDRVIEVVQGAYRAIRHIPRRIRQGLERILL

enfuvirtide
inhibitory effect on gp41 activity (cell-cell fusion, formation of syncytia): comparable inhibition of gp41
